{
  "source": "DBAASP",
  "experiment_in_all_cases": "≥ marks a high value that may be exact or a test limit, other limits are often not marked, values filed in µg/mL are converted to µM",
  "key": {"[1]": {"system": "Candida albicans ATCC 90112"}, "[2]": {"system": "Micrococcus luteus ATCC 10240"}, "Streptococcus pyogenes": {"system": "Streptococcus pyogenes"}, "[3]": {"system": "Stenotrophomonas maltophilia ATCC 13637"}, "[4]": {"system": "Bacillus subtilis ATCC 6633"}, "[5]": {"system": "Staphylococcus aureus ATCC 25923"}, "[6]": {"system": "Escherichia coli ATCC 25922"}, "[7]": {"system": "Pseudomonas aeruginosa ATCC 27853"}, "Proteus mirabilis": {"system": "Proteus mirabilis"}, "[8]": {"system": "Staphylococcus epidermidis"}, "[9]": {"system": "Micrococcus luteus IAM 1056"}, "[10]": {"system": "Proteus vulgaris IAM 12542"}, "[11]": {"system": "Escherichia coli K-12 W3110"}, "Bacillus cereus IAM 1110": {"system": "Bacillus cereus IAM 1110"}, "[12]": {"system": "Bacillus subtilis IAM 1071"}, "[13]": {"system": "Aeromonas hydrophila IAM 12460"}, "[14]": {"system": "Candida albicans ATCC 90028"}, "[15]": {"system": "Staphylococcus aureus S908"}, "[16]": {"system": "Staphylococcus aureus T4/6"}, "[17]": {"system": "Acinetobacter baumannii I NM8"}, "[18]": {"system": "Staphylococcus aureus 145/08"}, "[19]": {"system": "Klebsiella pneumoniae ATCC 700603"}, "[20]": {"system": "Staphylococcus aureus 127/08"}, "[21]": {"system": "Escherichia coli ATCC 25726"}, "[22]": {"system": "Staphylococcus aureus 274/08"}, "[23]": {"system": "Staphylococcus aureus V4180"}, "[24]": {"system": "Staphylococcus aureus ΔmprF"}, "[25]": {"system": "Staphylococcus aureus ΔmprFpRBsyn"}, "[26]": {"system": "Staphylococcus aureus 930918-3"}, "[27]": {"system": "Staphylococcus aureus 28841"}, "[28]": {"system": "Salmonella enterica serovar typhimurium MS7953s"}, "[29]": {"system": "Salmonella enterica subsp. enterica serovar Typhimurium ATCC 14028s"}, "[30]": {"system": "Listeria monocytogenes EGD"}, "Klebsiella pneumoniae": {"system": "Klebsiella pneumoniae"}, "[31]": {"system": "Enterococcus faecalis ATCC 29212"}, "[32]": {"system": "Enterococcus faecalis CDC 21"}, "[33]": {"system": "Enterococcus faecium 94-132"}, "[34]": {"system": "Pseudomonas aeruginosa MR2123"}, "Escherichia coli BAS 849": {"system": "Escherichia coli BAS 849"}, "Enterococcus faecium": {"system": "Enterococcus faecium"}, "[35]": {"system": "Pseudomonas aeruginosa MR3007"}, "[36]": {"system": "Pseudomonas aeruginosa SBI-N"}, "[37]": {"system": "Staphylococcus aureus 30371"}, "Escherichia coli ML-35p": {"system": "Escherichia coli ML-35p"}, "[38]": {"system": "Candida albicans ATCC 10231"}},
  "note": "Several values for one entry are separate records, joined by “and”; a condition that tells them apart may be missing. Equal values may be shown once.",
  "data": [
    {"smiles": "CC[C@H](C)[C@H](NC(=O)[C@H](CC(=O)O)NC(=O)[C@@H](N)Cc1ccccc1)C(=O)N[C@@H](CCSC)C(=O)NCC(=O)N[C@@H](CC(C)C)C(=O)N[C@H](C(=O)N[C@@H](CCCCN)C(=O)N[C@@H](CCCCN)C(=O)N[C@H](C(=O)N[C@@H](C)C(=O)NCC(=O)N[C@@H](C)C(=O)N[C@@H](CC(C)C)C(N)=O)C(C)C)[C@@H](C)CC", "note": "[FDIMGLIKKVAGAL]", "values": [
      {"measurement": "MIC", "setting": "[1]", "result": 7.5, "unit": "µM"},
      {"measurement": "MIC", "setting": "[2]", "result": 30, "unit": "µM"},
      {"measurement": "MIC", "setting": "Streptococcus pyogenes", "result": 30, "unit": "µM"},
      {"measurement": "MIC", "setting": "[3]", "result": 30, "unit": "µM"},
      {"measurement": "MIC", "setting": "[4]", "result": 30, "unit": "µM"},
      {"measurement": "MIC", "setting": "[5]", "result": 30, "unit": "µM"},
      {"measurement": "MIC", "setting": "[6]", "result": 30, "unit": "µM"},
      {"measurement": "MIC", "setting": "[7]", "result": "> 30", "unit": "µM"},
      {"measurement": "MIC", "setting": "Proteus mirabilis", "result": "≥ 60", "unit": "µM"},
      {"measurement": "MIC", "setting": "[8]", "result": 30, "unit": "µM"}
    ]},
    {"smiles": "CC[C@H](C)[C@@H]1NC(=O)CNC(=O)[C@@H]2CSSC[C@@H]3NC(=O)[C@H](C(C)C)NC(=O)[C@H](CCCN=C(N)N)NC(=O)[C@H](CCCCN)NC(=O)[C@H](CCCCN)NC(=O)[C@H](CC(N)=O)NC(=O)[C@H](CSSC[C@H](NC(=O)[C@@H](NC(=O)[C@@H](N)Cc4ccccc4)[C@@H](C)O)C(=O)N[C@@H](CC(=O)O)C(=O)N[C@@H](C(C)C)C(=O)N[C@@H](CC(C)C)C(=O)N[C@@H](CO)C(=O)N[C@@H](C(C)C)C(=O)N[C@@H](CCC(=O)O)C(=O)N[C@@H](C)C(=O)N[C@@H](CCCCN)C(=O)NCC(=O)N[C@@H](C(C)C)C(=O)N[C@@H](CCCCN)C(=O)N[C@@H](CC(C)C)C(=O)N[C@@H](CC(N)=O)C(=O)N[C@@H](Cc4cnc[nH]4)C(=O)N[C@@H](C)C(=O)N[C@@H](C)C(=O)N2)NC(=O)[C@H](Cc2ccc(O)cc2)NC(=O)CNC(=O)CNC(=O)[C@H]([C@@H](C)O)NC(=O)[C@H](CCCN=C(N)N)NC(=O)[C@H](CCCN=C(N)N)NC(=O)[C@H](CCCN=C(N)N)NC(=O)[C@H](Cc2ccccc2)NC(=O)[C@H](CC(C)C)NC(=O)[C@H](CSSC[C@@H](C(=O)N[C@@H](CCCN=C(N)N)C(=O)O)NC(=O)[C@H]([C@@H](C)CC)NC3=O)NC(=O)[C@H](Cc2cnc[nH]2)NC1=O", "note": "[FTCDVLSVEAKGVKLNHAACGIHCLFRRRTGGYCNKKRVCICR]", "values": [
      {"measurement": "MIC", "setting": "[9]", "result": 0.0665, "unit": "µM"},
      {"measurement": "MIC", "setting": "[10]", "result": 2.12, "unit": "µM"},
      {"measurement": "MIC", "setting": "[11]", "result": 4.24, "unit": "µM"},
      {"measurement": "MIC", "setting": "Bacillus cereus IAM 1110", "result": 4.24, "unit": "µM"},
      {"measurement": "MIC", "setting": "[12]", "result": 2.12, "unit": "µM"},
      {"measurement": "MIC", "setting": "[13]", "result": 2.12, "unit": "µM"}
    ]},
    {"smiles": "CC(C)C[C@H](NC(=O)CNC(=O)[C@H](CC(C)C)NC(=O)[C@H](CCCCN)NC(=O)[C@H](CC(C)C)NC(=O)[C@H](CC(C)C)NC(=O)[C@@H]1CCCN1C(=O)CNC(=O)[C@H](CC(C)C)NC(=O)[C@H](Cc1ccccc1)NC(=O)CN)C(=O)N[C@@H](CCCCN)C(=O)NCC(=O)N[C@@H](C)C(=O)N[C@@H](C)C(=O)N[C@@H](CCCCN)C(=O)N[C@@H](CC(C)C)C(=O)N[C@@H](CC(C)C)C(=O)N1CCC[C@H]1C(=O)N[C@@H](CCC(N)=O)C(=O)N[C@@H](CC(C)C)C(=O)N[C@@H](CC(C)C)C(=O)N1CCC[C@H]1C(=O)N[C@@H](CO)C(=O)N[C@@H](CCCN=C(N)N)C(=O)N[C@@H](CCC(N)=O)C(=O)N[C@@H](CCC(N)=O)C(=O)O", "note": "[GFLGPLLKLGLKGAAKLLPQLLPSRQQ]", "values": [
      {"measurement": "MIC", "setting": "[14]", "result": 12.5, "unit": "µM"},
      {"measurement": "MIC", "setting": "[15]", "result": 2.5, "unit": "µM"},
      {"measurement": "MIC", "setting": "[16]", "result": 2.5, "unit": "µM"},
      {"measurement": "MIC", "setting": "[17]", "result": 6, "unit": "µM"},
      {"measurement": "MIC", "setting": "[18]", "result": 2.5, "unit": "µM"},
      {"measurement": "MIC", "setting": "[19]", "result": 50, "unit": "µM"},
      {"measurement": "MIC", "setting": "[5]", "result": "2.5 µM and 6 µM"},
      {"measurement": "MIC", "setting": "[20]", "result": 2.5, "unit": "µM"},
      {"measurement": "MIC", "setting": "[21]", "result": "≥ 50", "unit": "µM"},
      {"measurement": "MIC", "setting": "[22]", "result": 2.5, "unit": "µM"},
      {"measurement": "MIC", "setting": "[7]", "result": 25, "unit": "µM"},
      {"measurement": "MIC", "setting": "[23]", "result": 2.5, "unit": "µM"}
    ]},
    {"smiles": "CC(C)C[C@H](NC(=O)[C@@H](NC(=O)CNC(=O)[C@H](CCCN=C(N)N)NC(=O)[C@@H](NC(=O)[C@H](CCCN=C(N)N)NC(=O)[C@@H](NC(=O)[C@H](Cc1ccc(O)cc1)NC(=O)[C@H](C)NC(=O)[C@H](Cc1ccc(O)cc1)NC(=O)[C@@H](NC(=O)[C@H](CO)NC(=O)[C@H](Cc1c[nH]c2ccccc12)NC(=O)[C@@H](N)CCCN=C(N)N)C(C)C)C(C)C)C(C)C)C(C)C)C(=O)N[C@H](C(=O)N[C@@H](CCCN=C(N)N)C(=O)N[C@@H](Cc1ccc(O)cc1)C(=O)N[C@@H](CCCN=C(N)N)C(=O)N[C@@H](CCCN=C(N)N)C(=O)N[C@@H](CO)C(=O)N[C@@H](Cc1c[nH]c2ccccc12)C(=O)O)C(C)C", "note": "[RWSVYAYVRVRGVLVRYRRSW]", "values": [
      {"measurement": "MIC", "setting": "[24]", "result": 2.93, "unit": "µM"},
      {"measurement": "MIC", "setting": "[25]", "result": "2.93 µM and 5.86 µM"}
    ]},
    {"smiles": "CC[C@H](C)[C@H](N=C(O)[C@H](CCCCN)N=C(O)CN=C(O)[C@H](CC(C)C)N=C(O)[C@H](Cc1ccccc1)N=C(O)[C@H](CCC(=N)O)N=C(O)[C@H](Cc1ccccc1)N=C(O)[C@@H](N)C(C)C)C(O)=N[C@H](C(O)=N[C@@H](Cc1cnc[nH]1)C(O)=N[C@@H](Cc1cnc[nH]1)C(O)=N[C@H](C(O)=NCC(O)=N[C@@H](CC(=N)O)C(O)=N[C@@H](Cc1ccccc1)C(O)=N[C@H](C(O)=N[C@@H](Cc1cnc[nH]1)C(O)=NCC(O)=N[C@@H](Cc1ccccc1)C(O)=N[C@@H](CO)C(O)=N[C@@H](Cc1cnc[nH]1)C(O)=N[C@H](C(O)=N[C@@H](Cc1ccccc1)C(=N)O)C(C)C)C(C)C)C(C)C)[C@@H](C)CC", "note": "[VFQFLGKIIHHVGNFVHGFSHVF]", "values": [
      {"measurement": "MIC", "setting": "[26]", "result": 0.637, "unit": "µM"},
      {"measurement": "MIC", "setting": "[27]", "result": 0.712, "unit": "µM"},
      {"measurement": "MIC", "setting": "[28]", "result": 0.15, "unit": "µM"},
      {"measurement": "MIC", "setting": "[29]", "result": 0.6, "unit": "µM"},
      {"measurement": "MIC", "setting": "[30]", "result": 0.15, "unit": "µM"},
      {"measurement": "MIC", "setting": "Klebsiella pneumoniae", "result": 0.45, "unit": "µM"},
      {"measurement": "MIC", "setting": "[31]", "result": 96, "unit": "µM"},
      {"measurement": "MIC", "setting": "[32]", "result": 0.225, "unit": "µM"},
      {"measurement": "MIC", "setting": "[33]", "result": 0.075, "unit": "µM"},
      {"measurement": "MIC", "setting": "[34]", "result": 0.3, "unit": "µM"},
      {"measurement": "MIC", "setting": "Escherichia coli BAS 849", "result": 0.562, "unit": "µM"},
      {"measurement": "MIC", "setting": "Enterococcus faecium", "result": 0.113, "unit": "µM"},
      {"measurement": "MIC", "setting": "[35]", "result": 0.412, "unit": "µM"},
      {"measurement": "MIC", "setting": "[6]", "result": 96, "unit": "µM"},
      {"measurement": "MIC", "setting": "[36]", "result": 0.375, "unit": "µM"},
      {"measurement": "MIC", "setting": "[37]", "result": 1.01, "unit": "µM"},
      {"measurement": "MIC", "setting": "Escherichia coli ML-35p", "result": 0.562, "unit": "µM"},
      {"measurement": "MIC", "setting": "[38]", "result": "48 µM and > 24 µM"}
    ]}
  ]
}
